US20110269763A1, “CRTH2 receptor ligands for medicinal uses” (7TM Pharma A/S, priority 2004, published 2011)

Experiments:
[1] = target: T1, human CRTH2 (Homo sapiens, UniProt Q9Y5Y4, V204A); assay: Receptor binding assay: [3H]PGD2 competition binding on whole COS-7 cells transiently transfected with CRTH2 (also stable HEK293 cells); parameters: expressed in transfected cells; host or cells: COS-7 (transient, calcium phosphate); settings: competition with 0.1 nM [3H]PGD2, whole cells, 3 h at 4° C.
T1 sequence (Q9Y5Y4 1-395 V204A): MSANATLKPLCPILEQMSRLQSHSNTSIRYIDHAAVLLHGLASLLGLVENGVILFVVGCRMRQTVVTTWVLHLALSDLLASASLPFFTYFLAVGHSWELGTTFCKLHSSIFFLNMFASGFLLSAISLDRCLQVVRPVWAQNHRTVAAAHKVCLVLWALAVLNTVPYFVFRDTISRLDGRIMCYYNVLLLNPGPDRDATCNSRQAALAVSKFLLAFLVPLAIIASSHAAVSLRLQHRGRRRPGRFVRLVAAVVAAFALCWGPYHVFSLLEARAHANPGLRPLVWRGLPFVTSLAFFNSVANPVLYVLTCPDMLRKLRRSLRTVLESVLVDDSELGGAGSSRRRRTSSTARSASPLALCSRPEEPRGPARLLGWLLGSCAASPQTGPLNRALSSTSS
Text: (§1) Generation/origin of the cDNA Constructs. The coding sequence of the human CRTH2 receptor (genbank accession no NM_004778) was amplified by PCR from a human hippocampus cDNA library and inserted into the pcDNA3.1(+) expression vector (invitrogen) via 5′ HindIII and 3′ EcoRI. To generate a CRTH2-Renilla luciferase (CRTH2-Rluc) fusion protein, the CRTH2 coding sequence without a STOP codon and Rluc were amplified, fused in frame by PCR and subcloned into the pcDNA3.1(+)Zeo expression vector (invitrogen). Human β-arrestin2 (β-arr2) N-terminally tagged with GFP^2 (βarr2-GFP^2) and Renilla luciferase were purchased from BioSignal Packard Inc, (Montreal, Canada). The sequence identity of the construct was verified by restriction endonuclease digests and sequencing in both directions on an ABI Prism (Applied Biosystems, Foster City, Calif.).
(§2) Cell Culture and Transfection. COS-7 cells were grown in Dulbecco's modified Eagle's medium (DMEM) 1885 supplemented with 10% fetal bovine serum, 100 units/ml penicillin, […] streptomycin, and kept at 37° C. in a 10% CO2 atmosphere. HEK293 cells were maintained in Minimum Essential medium (MEM) supplemented with 10% (v/v) heat inactivated fetal calf serum (HIFCS), 2 mM Glutamax™-I, 1% non essential amino acids (NEAA), 1% sodium pyruvate and 10 μg/ml gentamicin. For binding experiments, COS7 cells were transiently transfected with the CRTH2 receptor using a calcium phosphate-DNA coprecipitation method with the addition of chloroquine (as described by Holst et al., 2001↓). To perform the functional Bioluminescence Resonance Energy Transfer (BRET) assays, a HEK293 cell clone stably expressing βarr2-GFP^2 and CRTH2-Rluc was generated (CRTH2-HEK293 cells).
Binding assay. 24 h after transfection COS-7 cells were seeded into 96 well plates at a density of 30.000 cells/well. Competition binding experiments on whole cells were then performed about 18-24 h later using 0.1 nM [^3H]PGD2 (NEN, 172 Ci/mmol) in a binding buffer consisting of HBSS (GIBCO) and 10 mM HEPES. Competing ligands were diluted in DMSO which was kept constant at 1% (v/v) of the final incubation volume. Total and nonspecific binding were determined in the absence and presence of 10 μM PGD2. Binding reactions were routinely conducted for 3 h at 4° C. and terminated by 2 washes (100 μl each) with ice cold binding buffer. Radioactivity was determined by liquid scintillation counting in a TOPCOUNTER (Packard) following over night incubation in Microscint 20. Stable HEK293 cells were seeded at a density of 30.000 cells/well 18-24 h prior to the binding assay which was performed essentially as described for COS7 cells above. Determinations were made in duplicates.
(§3) Curve analysis was performed with the GraphPadPrism software 3.0 (Graphpad Prism Inc., San Diego, USA) and IC50 values were calculated as a measure of the antagonistic potencies.

[2] = target: T1, human CRTH2; assay: Functional antagonist BRET assay on HEK293 cells stably expressing human CRTH2-Rluc and GFP2-β-arr2; type: cell-based; parameters: expressed in transfected cells; settings: BRET, antagonist incubated 15 minutes prior to agonist; read-out: Antag. IC50
Text: as §1, §2
BRET assay. Functional BRET assays were performed on HEK293 cells stably expressing human CRTH2-Rluc and GFP^2-β-arr2. Prior to their use in the BRET assay cells were detached and re-suspended in D-PBS with 1000 mg/L L-Glucose at a density of 2×10^6 cells/mL. DeepBlueC™ was diluted to 50 μM in D-PBS with 1000 mg/L L-Glucose (light sensitive). 100 μL of cell suspension was transferred to wells in a 96-well microplate (white OptiPlate) and placed in the Mithras LB 940 instrument (BERTHOLD TECHNOLOGIES, Bad Wildbad, Germany). 12 μL/well agonist was then injected by injector 1 and 10 μL/well DeepBlueC™ was injected simultaneously by injector 2. Five seconds after the injections the light output from the well was measured sequentially at 400 nm and 515 nm, and the BRET signal (mBRET ratio) was calculated by the ratio of the fluorescence emitted by GFP^2-β-arr2 (515 nm) over the light emitted by the receptor-Rluc (400 nm). Antagonists were added before placing the microplates into the Mithras LB 940 and allowed to incubate for 15 minutes prior to the addition of agonist and DeepBlueC™. Compounds were dissolved in DMSO and the final DMSO concentration was kept constant at 1% in the assay.
as §3

| Structure (SMILES) | IC50 [1] [nM] | IC50 [2] [nM] |
| --- | --- | --- |
| O=C(O)COc1ccc(Br)cc1C(=O)c1cnn(-c2ccc(Br)cc2)c1 [D16, 4-Bromo-2-[1-(4-bromophenyl)-1H-pyrazole-4-carbonyl]phenoxyacetic acid] | < 500 | < 500 |
| O=C(O)COc1ccc([N+](=O)[O-])cc1C(=O)c1cnn(-c2ccc(Cl)cc2)c1 [D19, 4-Nitro-2-[1-(4-chlorophenyl)-1H-pyrazole-4-carbonyl]phenoxyacetic acid] | < 500 | < 500 |
| O=C(O)COc1ccc(Br)cc1C(=O)c1cnn(-c2ccccc2F)c1 [D22, 4-Bromo-2-[1-(2-fluorophenyl)-1H-pyrazole-4-carbonyl]phenoxyacetic acid] | < 500 | < 500 |
| O=C(O)COc1ccc(Br)cc1C(=O)c1cnn(-c2cccc(Br)c2)c1 [D24, 4-Bromo-2-[1-(3-bromophenyl)-1H-pyrazole-4-carbonyl]phenoxyacetic acid] | < 500 | < 500 |
| O=C(O)COc1ccc(Br)cc1C(=O)c1cnn(-c2ccc(Cl)cc2Cl)c1 [D26, 4-Bromo-2-[1-(2,4-dichlorophenyl)-1H-pyrazole-4-carbonyl]phenoxyacetic acid] | < 500 | < 500 |
| O=C(O)COc1ccc([N+](=O)[O-])cc1C(=O)c1cnn(-c2ccccc2Cl)c1 [D27, 4-Nitro-2-[1-(2-chlorophenyl)-1H-pyrazole-4-carbonyl]phenoxyacetic acid] | < 500 | < 500 |
| O=C(O)COc1ccc(Br)cc1C(=O)c1cnn(-c2c(Cl)cccc2Cl)c1 [D29, 4-Bromo-2-[1-(2,6-dichlorophenyl)-1H-pyrazole-4-carbonyl]phenoxyacetic acid] | < 500 | < 500 |
| CCc1ccc(OCC(=O)O)c(C(=O)c2cnn(-c3ccccc3Br)c2)c1 [D30, 4-Ethyl-2-[1-(2-bromophenyl)-1H-pyrazole-4-carbonyl]phenoxyacetic acid] | < 500 | < 500 |
| CC(C)c1ccc(OCC(=O)O)c(C(=O)c2cnn(-c3ccccc3Cl)c2)c1 [D31, 2-[1-(2-Chlorophenyl)-1H-pyrazole-4-carbonyl]-4-isopropylphenoxyacetic acid] | < 500 | < 500 |
| O=C(O)COc1ccc(Br)cc1C(=O)c1cnn(-c2ccc(Br)cc2Cl)c1 [D34, 4-Bromo-2-[1-(4-bromo-2-chlorophenyl)-1H-pyrazole-4-carbonyl]phenoxyacetic acid] | < 500 | < 500 |
| O=C(O)COc1ccc(Br)cc1C(=O)c1cnn(-c2c(Cl)cc(Cl)cc2Cl)c1 [D35, 4-Bromo-2-[1-(2,4,6-trichlorophenyl)-1H-pyrazole-4-carbonyl]phenoxyacetic acid] | < 500 | < 500 |
| COc1ccc(OCC(=O)O)c(C(=O)c2cnn(-c3ccccc3)c2)c1 [D36, 4-Methoxy-2-[1-phenyl-1H-pyrazole-4-carbonyl]phenoxyacetic acid] | < 500 | 500 to 5000 |
| CC(Oc1ccc(Br)cc1C(=O)c1cnn(-c2ccccc2Cl)c1)C(=O)O (stereo not drawn) [D38, 2-{4-Bromo-2-[1-(2-chlorophenyl)-1-H-pyrazole-4-carbonyl]phenoxy}propionic acid] | < 500 | < 500 |
| CC(Oc1ccc(Br)cc1C(=O)c1cnn(-c2c(Cl)cccc2Cl)c1)C(=O)O (stereo not drawn) [D39, 2-{4-Bromo-2-[1-(2,6-dichlorophenyl)-1H-pyrazole-4-carbonyl]phenoxy}propionic acid] | < 500 | < 500 |
| N#Cc1ccccc1-n1cc(C(=O)c2cc(Br)ccc2OCC(=O)O)cn1 [D40, {4-Bromo-2-[1-(2-cyano-phenyl)-1H-pyrazole-4-carbonyl]phenoxy}acetic acid] | < 500 | < 500 |
| CCOc1ccccc1-n1cc(C(=O)c2cc(Br)ccc2OCC(=O)O)cn1 [D41, {4-Bromo-2-[1-(2-ethoxyphenyl)-1H-pyrazole-4-carbonyl]phenoxy}acetic acid] | < 500 | < 500 |
| O=C(O)COc1ccc(Br)cc1C(=O)c1cnn(-c2ccccc2Oc2ccccc2)c1 [D43, {4-Bromo-2-[1-(2-phenoxyphenyl)-1H-pyrazole-4-carbonyl]phenoxy}acetic acid] | < 500 | < 500 |

Continued, values first:

| IC50 [1] [nM] | IC50 [2] [nM] | Structure (SMILES) |
| --- | --- | --- |
| < 500 | < 500 | O=C(O)COc1ccc(Br)cc1C(=O)c1cnn(-c2ccc(Cl)cc2)c1 [D17, 4-Bromo-2-[1-(4-chlorophenyl)-1H-pyrazole-4-carbonyl]phenoxyacetic acid] |
| < 500 | < 500 | CCc1ccccc1-n1cc(C(=O)c2cc(Br)ccc2OCC(=O)O)cn1 [D18, 4-Bromo-2-[1-(2-ethylphenyl)-1H-pyrazole-4-carbonyl]phenoxyacetic acid] |
| < 500 | < 500 | O=C(O)COc1ccc([N+](=O)[O-])cc1C(=O)c1cnn(-c2ccccc2)c1 [D20, 4-Nitro-2-(1-phenyl-1H-pyrazole-4-carbonyl)phenoxyacetic acid] |
| < 500 | < 500 | O=C(O)COc1ccc(Br)cc1C(=O)c1cnn(-c2ccccc2Br)c1 [D21, 4-Bromo-2-[1-(2-bromophenyl)-1H-pyrazole-4-carbonyl]phenoxyacetic acid] |
| < 500 | < 500 | O=C(O)COc1ccc(Br)cc1C(=O)c1cnn(-c2ccccc2C(F)(F)F)c1 [D23, 4-Bromo-2-[1-(2-trifluoromethylphenyl)-1H-pyrazole-4-carbonyl]phenoxyacetic acid] |
| < 500 | < 500 | O=C(O)COc1ccc(Br)cc1C(=O)c1cnn(-c2cccc(C(F)(F)F)c2)c1 [D25, 4-Bromo-2-[1-(3-trifluoromethylphenyl)-1H-pyrazole-4-carbonyl]phenoxyacetic acid] |
| < 500 | < 500 | O=C(O)COc1ccc([N+](=O)[O-])cc1C(=O)c1cnn(-c2ccccc2Br)c1 [D28, 4-Nitro-2-[1-(2-bromophenyl)-1H-pyrazole-4-carbonyl]phenoxyacetic acid] |
| < 500 | < 500 | O=C(O)COc1ccc(Br)cc1C(=O)c1cnn(-c2ccc(OC(F)(F)F)cc2)c1 [D32] |
| < 500 | < 500 | O=C(O)COc1ccc(Br)cc1C(=O)c1cnn(-c2ccc(Br)cc2Br)c1 [D33, 4-Bromo-2-[1-(2,4-dibromophenyl)-1H-pyrazole-4-carbonyl]phenoxyacetic acid] |
| < 500 | < 500 | CCc1cc(Br)ccc1-n1cc(C(=O)c2cc(Br)ccc2OCC(=O)O)cn1 [D42, {4-Bromo-2-[1-(4-bromo-2-ethylphenyl)-1H-pyrazole-4-carbonyl]phenoxy}acetic acid] |
